Results reported in patent US10745741B2, “Cell barcoding in microfluidics” (EUROPEAN MOLECULAR BIOLOGY LABORATORY, priority 2015, dated 2020).

Key:
p21 = p21 expression by qPCR on barcoded mRNA from drug-treated MCF-7 cells in droplets; assay type: cell-based; details: 12 h at 37° C., barcode 2B, qPCR (FIG. 8A)
From the text: (§1) Barcoding cellular mRNA according to particular drug treatments. The combinatorial microfluidic chip was used to generate droplets containing the following components: • MCF-7 cells+media+ligation mix+barcode fragment BC-1+barcode fragment BC-A+Thiostrepton • MCF-7 cells+media+ligation mix+barcode fragment BC-2+barcode fragment BC-B+Doxorubicin treated cells • MCF-7 cells+media+ligation mix+barcode fragment BC-1+barcode fragment BC-B The resulting emulsions were collected separately in droplet traps (as shown in Hu H et al., Lab Chip 2015) for 12 h at 37° C., before cell lysis was achieved by repeated freezing and thawing. Then the emulsion was broken and hybridized cellular mRNA was purified using streptaviding-coated beads. This step ensures that only mRNA hybridized to ligated barcode combinations (e.g. 1A for the Thiostrepton sample) is isolated. Subsequently reverse transcription was carried out and the abundance of target genes was assessed by qPCR using primers specific for the target genes. Barcode fragment combination is shown exemplary for fragments BC-A and BC-1 in FIG. 7, as well as the reverse transcription and qPCR using the barcode. Expression levels of p21 (FIG. 8A) and FoxM1 (FIG. 8B) were normalized to Actb expression and the fold change in expression was determined between treated and untreated cells.

FoxM1 = FoxM1 expression by qPCR on barcoded mRNA from drug-treated MCF-7 cells in droplets; assay type: cell-based; details: 12 h at 37° C., barcode combination 1A, qPCR (FIG. 8B)
From the text: as §1

Structure (SMILES) | p21 expression normalized to Actb expression, fold change between treated and untreated cells (p21) | FoxM1 expression normalized to Actb expression, fold change between treated and untreated cells (FoxM1)
COc1cccc2c1C(=O)c1c(O)c3c(c(O)c1C2=O)C[C@@](O)(C(=O)CO)C[C@@H]3O[C@H]1C[C@H](N)[C@H](O)[C@H](C)O1 [Doxorubicin] | significant upregulation | 
C=C(NC(=O)C(=C)NC(=O)c1csc(C2=N[C@@H]3c4csc(n4)[C@H]4NC(=O)c5csc(n5)[C@H]([C@](C)(O)[C@@H](C)O)NC(=O)[C@H]5CSC(=N5)/C(=C/C)NC(=O)[C@H]([C@@H](C)O)NC(=O)c5csc(n5)[C@]3(CC2)NC(=O)[C@H](C)NC(=O)C(=C)NC(=O)[C@H](C)NC(=O)[C@H]([C@@H](C)CC)N[C@@H]2C=Cc3c([C@H](C)O)cc(nc3[C@H]2O)C(=O)O[C@@H]4C)n1)C(N)=O [Thiostrepton] |  | significant downregulation
